Data: patent US20140005119A1, “COMPOSITIONS AND METHODS FOR INHIBITING THE ACTIVITY OF P110a MUTANT PROTEINS” (Case Western Reserve University, priority 2012, published 2014)

Columns and labels:
p85 and IRS1 = assay: Immunoblot of treated cell lines, p85 and IRS1 levels; assay type: cell-based, human
Experimental: (§1) FIG. 4(A-F) illustrate: (A) Schematic diagram of linear and stapled WT and mutant peptides derived from p110α (SEQ ID NOs: 5, 6, 7 and 8). (B) Immunoblots of cell lysates immunoprecipitated with beads conjugated with anti-FLAG antibodies and then blotted with the indicated antibodies. Linear or stapled WT and mutant peptide were added into culture medium of the p110α E545K 3×FLAG KI cells for 16 hr. (C) Immunoblots of cell lysates immunoprecipitated with anti-p110α antibodies and then blotted with the indicated antibodies. Vaco481 CRC cells were treated with the stapled mutant peptides at the indicated concentration. (D) Immunoblots of cell lysates blotted with the indicated antibodies. The indicated cell lines were treated with the stapled mutant peptide. (E) Immunoblots of cell lysates blotted with the indicated antibodies. […]
(§2) For Co-immunoprecipitation (Co-IP), cells were harvested, washed with PBS, and then lysed in IP buffer (50 mMTris [pH 7.4], 150 mMNaCl, 5 mMEDTA [pH 8.0], 0.5% NP40, 1 mM PMSF, complete Protease Inhibitor Cocktail tablet [Roche]; supplemented with phosphatase inhibitors [1 mM Na3VO4, 20 mM NaF, 0.1 mM b-glycerophosphate, 20 mM sodium pyrophosphate] when necessary). […] Lysates were then cleared by centrifugation (14,000 rpm, 10 min) and protein concentration in supernatants was determined with a BCA protein assay kit (Pierce, Rockford, Ill.). […]

[1] = molecular target: T1, protein interaction between p110α Q546P and IRS1 in Vaco481 CRC cells (Homo sapiens, UniProt P35568); assay: Co-IP (anti-p110α) from Vaco481 CRC cells treated with stapled mutant peptide; assay type: cell-based
T1 construct: endogenous in cells; host or cells: Vaco481 CRC cells
T1 sequence (P35568 1-1242): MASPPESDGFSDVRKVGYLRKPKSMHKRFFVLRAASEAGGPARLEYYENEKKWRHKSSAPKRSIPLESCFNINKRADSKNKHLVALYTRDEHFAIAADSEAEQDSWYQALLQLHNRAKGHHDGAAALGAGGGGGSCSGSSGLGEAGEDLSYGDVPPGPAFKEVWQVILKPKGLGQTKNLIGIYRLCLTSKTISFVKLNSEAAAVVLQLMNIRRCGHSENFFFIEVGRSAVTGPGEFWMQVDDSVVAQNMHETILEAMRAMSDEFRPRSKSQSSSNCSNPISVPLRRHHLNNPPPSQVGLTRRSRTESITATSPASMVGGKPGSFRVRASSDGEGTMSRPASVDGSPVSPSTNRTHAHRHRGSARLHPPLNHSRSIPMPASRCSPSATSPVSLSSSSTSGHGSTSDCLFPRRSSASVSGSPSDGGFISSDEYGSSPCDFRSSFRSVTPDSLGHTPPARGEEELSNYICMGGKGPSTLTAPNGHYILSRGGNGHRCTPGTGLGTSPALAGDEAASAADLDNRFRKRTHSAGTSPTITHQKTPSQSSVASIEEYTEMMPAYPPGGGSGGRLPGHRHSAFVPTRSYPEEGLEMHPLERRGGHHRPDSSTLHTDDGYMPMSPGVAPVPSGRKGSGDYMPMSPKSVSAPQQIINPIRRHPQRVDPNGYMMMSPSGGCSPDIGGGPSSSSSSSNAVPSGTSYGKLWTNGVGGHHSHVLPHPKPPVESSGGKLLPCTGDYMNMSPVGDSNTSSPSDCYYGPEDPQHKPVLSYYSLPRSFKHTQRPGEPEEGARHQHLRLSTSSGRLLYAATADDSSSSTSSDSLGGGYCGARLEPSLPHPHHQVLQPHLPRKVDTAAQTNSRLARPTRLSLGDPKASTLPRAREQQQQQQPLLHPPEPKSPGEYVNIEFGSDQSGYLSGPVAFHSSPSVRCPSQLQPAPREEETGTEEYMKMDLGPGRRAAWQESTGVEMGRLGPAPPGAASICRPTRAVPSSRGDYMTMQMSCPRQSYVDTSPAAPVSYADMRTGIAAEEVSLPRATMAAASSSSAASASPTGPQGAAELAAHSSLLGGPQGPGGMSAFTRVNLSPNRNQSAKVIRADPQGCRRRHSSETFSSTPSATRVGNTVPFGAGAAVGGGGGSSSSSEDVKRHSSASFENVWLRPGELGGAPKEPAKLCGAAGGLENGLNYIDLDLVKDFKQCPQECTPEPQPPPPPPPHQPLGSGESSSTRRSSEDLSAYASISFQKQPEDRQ
Experimental: as §1, §2

H2N-SEITKQEK-D^549-FLW-S^553-HRHYC-COOH [stapled mutant peptide]
levels of p85 and IRS1 (p85 and IRS1): did not affect | disruption of protein interaction between p110α Q546P and IRS1 [1]: disrupted
